# Laboratory results as given in ChEMBL document CHEMBL1201862, “PubChem BioAssay data set” (2004).
#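 Results reflect a 48-hour exposure of cells in 96-well plates to compound at five concentrations. At the GI50, growth is halved.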 Activity calls are given as the source filed them. No stated cut-off is given here; in the data, active = GI50 up to about 1.1 µM and inactive = higher.
# Assays:
# Experiment in all cases: NCI anticancer screen, dose series, 48 h
# RXF 393 = system: RXF 393
# SK-MEL-2 = system: SK-MEL-2
# SW-620 = system: SW-620
# MCF7 = system: MCF7
# CCRF-CEM = system: CCRF-CEM
# SK-MEL-28 = system: SK-MEL-28
# A549 = system: A549
# HT-29 = system: HT-29
# SNB-75 = system: SNB-75
# Hs-578T = system: Hs-578T
# NCI-H460 = system: NCI-H460
# T47D = system: T47D
# NCI-H23 = system: NCI-H23
# SK-OV-3 = system: SK-OV-3
# K562 = system: K562
# IGROV-1 = system: IGROV-1
# SR = system: SR
# CAKI-1 = system: CAKI-1
# HOP-62 = system: HOP-62
# LOX IMVI = system: LOX IMVI
# MOLT-4 = system: MOLT-4
# OVCAR-4 = system: OVCAR-4
# PC-3 = system: PC-3
# COLO 205 = system: COLO 205
# NCI-H522 = system: NCI-H522
# OVCAR-8 = system: OVCAR-8
# NCI/ADR-RES = system: NCI/ADR-RES
# TK-10 = system: TK-10
# DU-145 = system: DU-145
# UACC-62 = system: UACC-62
# NCI-H226 = system: NCI-H226
# U-251 = system: U-251
# SF-295 = system: SF-295
# A498 = system: A498
# SF-539 = system: SF-539
# HL-60 = system: HL-60
# OVCAR-5 = system: OVCAR-5
# EKVX = system: EKVX
# SK-MEL-5 = system: SK-MEL-5
# MDA-N = system: MDA-N
# SN12C = system: SN12C
# HCT-116 = system: HCT-116
# HCC 2998 = system: HCC 2998
# UACC-257 = system: UACC-257
# UO-31 = system: UO-31
# 786-0 = system: 786-0
# HCT-15 = system: HCT-15
# RPMI-8226 = system: RPMI-8226
# M14 = system: M14
# Malme-3M = system: Malme-3M
# KM12 = system: KM12
# BT-549 = system: BT-549
# HOP-92 = system: HOP-92
# OVCAR-3 = system: OVCAR-3
# MDA-MB-435 = system: MDA-MB-435
# SNB-19 = system: SNB-19
# ACHN = system: ACHN
# SF-268 = system: SF-268
# MDA-MB-231 = system: MDA-MB-231
smiles,measurement,setting,value
O=C1CS[C@@](CC(c2ccc(Cl)cc2)c2ccc(Cl)cc2)(c2ccc(Cl)cc2)N1,GI50,RXF 393,3.56 µM (inactive)
same,GI50,SK-MEL-2,19.3 µM (inactive)
same,GI50,SW-620,18.2 µM (inactive)
same,GI50,MCF7,4.18 µM (inactive)
same,GI50,CCRF-CEM,4.71 µM (inactive)
same,GI50,SK-MEL-28,43 µM (inactive)
same,GI50,A549,5.97 µM (inactive)
same,GI50,HT-29,9.55 µM (inactive)
same,GI50,SNB-75,33.5 µM (inactive)
same,GI50,Hs-578T,38.2 µM (inactive)
same,GI50,NCI-H460,9.1 µM (inactive)
same,GI50,T47D,4.28 µM (inactive)
same,GI50,NCI-H23,9.75 µM (inactive)
same,GI50,SK-OV-3,45 µM (inactive)
same,GI50,K562,5.15 µM (inactive)
same,GI50,IGROV-1,26.4 µM (inactive)
same,GI50,SR,4.24 µM (inactive)
same,GI50,CAKI-1,19.2 µM (inactive)
same,GI50,HOP-62,14.2 µM (inactive)
same,GI50,LOX IMVI,8.53 µM (inactive)
same,GI50,MOLT-4,3.32 µM (inactive)
same,GI50,OVCAR-4,6.82 µM (inactive)
same,GI50,PC-3,4.68 µM (inactive)
same,GI50,COLO 205,4.74 µM (inactive)
same,GI50,NCI-H522,6.28 µM (inactive)
same,GI50,OVCAR-8,14.6 µM (inactive)
same,GI50,NCI/ADR-RES,8.17 µM (inactive)
same,GI50,TK-10,51.3 µM (inactive)
same,GI50,DU-145,39.1 µM (inactive)
same,GI50,UACC-62,12.5 µM (inactive)
same,GI50,NCI-H226,9.75 µM (inactive)
same,GI50,U-251,10.2 µM (inactive)
same,GI50,SF-295,5.08 µM (inactive)
same,GI50,A498,11.6 µM (inactive)
same,GI50,SF-539,22.8 µM (inactive)
same,GI50,HL-60,3.8 µM (inactive)
same,GI50,OVCAR-5,> 100 µM (inactive)
same,GI50,EKVX,16.9 µM (inactive)
same,GI50,SK-MEL-5,12.6 µM (inactive)
same,GI50,MDA-N,8.13 µM (inactive)
same,GI50,SN12C,2.16 µM (inactive)
same,GI50,HCT-116,9.59 µM (inactive)
same,GI50,HCC 2998,19.5 µM (inactive)
same,GI50,UACC-257,14.3 µM (inactive)
same,GI50,UO-31,25.1 µM (inactive)
same,GI50,786-0,9.66 µM (inactive)
same,GI50,HCT-15,10.8 µM
same,GI50,RPMI-8226,5.05 µM (inactive)
same,GI50,M14,11.8 µM (inactive)
same,GI50,Malme-3M,21.6 µM (inactive)
same,GI50,KM12,13.4 µM (inactive)
same,GI50,BT-549,49.8 µM (inactive)
same,GI50,HOP-92,15.3 µM (inactive)
same,GI50,OVCAR-3,6.21 µM (inactive)
same,GI50,MDA-MB-435,14 µM (inactive)
same,GI50,SNB-19,33.2 µM (inactive)
same,GI50,ACHN,11.2 µM (inactive)
same,GI50,SF-268,17.5 µM (inactive)
N#CCCC(CC#N)N1CCN(C(CC#N)CCC#N)CC1 (stereo not drawn),GI50,RXF 393,> 100 µM (inactive)
same,GI50,SW-620,> 100 µM (inactive)
same,GI50,MCF7,> 100 µM (inactive)
same,GI50,CCRF-CEM,> 100 µM (inactive)
same,GI50,SK-MEL-28,> 100 µM (inactive)
same,GI50,A549,> 100 µM (inactive)
same,GI50,HT-29,> 100 µM (inactive)
same,GI50,SNB-75,> 100 µM (inactive)
same,GI50,NCI-H460,> 100 µM (inactive)
same,GI50,NCI-H23,> 100 µM (inactive)
same,GI50,SK-OV-3,> 100 µM (inactive)
same,GI50,K562,> 100 µM (inactive)
same,GI50,IGROV-1,> 100 µM (inactive)
same,GI50,SR,> 100 µM (inactive)
same,GI50,CAKI-1,> 100 µM (inactive)
same,GI50,HOP-62,> 100 µM (inactive)
same,GI50,MOLT-4,> 100 µM (inactive)
same,GI50,OVCAR-4,> 100 µM (inactive)
same,GI50,PC-3,> 100 µM (inactive)
same,GI50,COLO 205,> 100 µM (inactive)
same,GI50,NCI-H522,> 100 µM (inactive)
same,GI50,OVCAR-8,> 100 µM (inactive)
same,GI50,NCI/ADR-RES,> 100 µM (inactive)
same,GI50,TK-10,> 100 µM (inactive)
same,GI50,DU-145,> 100 µM (inactive)
same,GI50,UACC-62,> 100 µM (inactive)
same,GI50,NCI-H226,> 100 µM (inactive)
same,GI50,U-251,> 100 µM (inactive)
same,GI50,SF-295,> 100 µM (inactive)
same,GI50,SF-539,> 100 µM (inactive)
same,GI50,HL-60,> 100 µM (inactive)
same,GI50,OVCAR-5,> 100 µM (inactive)
same,GI50,EKVX,> 100 µM (inactive)
same,GI50,SK-MEL-5,> 100 µM (inactive)
same,GI50,MDA-N,> 100 µM (inactive)
same,GI50,SN12C,> 100 µM (inactive)
same,GI50,HCT-116,> 100 µM (inactive)
same,GI50,HCC 2998,> 100 µM (inactive)
same,GI50,UACC-257,> 100 µM (inactive)
same,GI50,UO-31,> 100 µM (inactive)
same,GI50,786-0,> 100 µM (inactive)
same,GI50,HCT-15,> 100 µM
same,GI50,RPMI-8226,> 100 µM (inactive)
same,GI50,M14,> 100 µM (inactive)
same,GI50,Malme-3M,> 100 µM (inactive)
same,GI50,BT-549,> 100 µM (inactive)
same,GI50,OVCAR-3,> 100 µM (inactive)
same,GI50,SNB-19,> 100 µM (inactive)
same,GI50,ACHN,> 100 µM (inactive)
same,GI50,SF-268,> 100 µM (inactive)
COc1ccc(/C=C/c2cc(O)cc(OC)c2)cc1,GI50,RXF 393,> 100 µM (inactive)
same,GI50,SK-MEL-2,> 100 µM (inactive)
same,GI50,SW-620,> 100 µM (inactive)
same,GI50,MCF7,> 100 µM (inactive)
same,GI50,SK-MEL-28,> 100 µM (inactive)
same,GI50,A549,97.3 µM (inactive)
same,GI50,HT-29,> 100 µM (inactive)
same,GI50,SNB-75,> 100 µM (inactive)
same,GI50,Hs-578T,> 100 µM (inactive)
same,GI50,NCI-H460,84.5 µM (inactive)
same,GI50,T47D,> 100 µM (inactive)
same,GI50,NCI-H23,> 100 µM (inactive)
same,GI50,SK-OV-3,> 100 µM (inactive)
same,GI50,K562,67.9 µM (inactive)
same,GI50,IGROV-1,> 100 µM (inactive)
same,GI50,SR,> 100 µM (inactive)
same,GI50,CAKI-1,> 100 µM (inactive)
same,GI50,HOP-62,> 100 µM (inactive)
same,GI50,MOLT-4,56.5 µM (inactive)
same,GI50,OVCAR-4,> 100 µM (inactive)
same,GI50,PC-3,68.5 µM (inactive)
same,GI50,COLO 205,> 100 µM (inactive)
same,GI50,NCI-H522,65.3 µM (inactive)
same,GI50,OVCAR-8,> 100 µM (inactive)
same,GI50,NCI/ADR-RES,> 100 µM (inactive)
same,GI50,TK-10,> 100 µM (inactive)
same,GI50,DU-145,> 100 µM (inactive)
same,GI50,UACC-62,> 100 µM (inactive)
same,GI50,NCI-H226,> 100 µM (inactive)
same,GI50,U-251,28.7 µM (inactive)
same,GI50,SF-295,75.9 µM (inactive)
same,GI50,A498,> 100 µM (inactive)
same,GI50,SF-539,> 100 µM (inactive)
same,GI50,HL-60,79.6 µM (inactive)
same,GI50,OVCAR-5,> 100 µM (inactive)
same,GI50,EKVX,55.3 µM (inactive)
same,GI50,SK-MEL-5,> 100 µM (inactive)
same,GI50,SN12C,65.2 µM (inactive)
same,GI50,HCT-116,> 100 µM (inactive)
same,GI50,UACC-257,> 100 µM (inactive)
same,GI50,UO-31,> 100 µM (inactive)
same,GI50,786-0,> 100 µM (inactive)
same,GI50,HCT-15,0.855 µM
same,GI50,RPMI-8226,22.3 µM (inactive)
same,GI50,M14,> 100 µM (inactive)
same,GI50,Malme-3M,86.3 µM (inactive)
same,GI50,KM12,40.9 µM (inactive)
same,GI50,BT-549,22.9 µM (inactive)
same,GI50,HOP-92,50.7 µM (inactive)
same,GI50,OVCAR-3,> 100 µM (inactive)
same,GI50,MDA-MB-435,68.4 µM (inactive)
same,GI50,SNB-19,> 100 µM (inactive)
same,GI50,ACHN,19.8 µM (inactive)
same,GI50,MDA-MB-231,27.8 µM (inactive)
same,GI50,SF-268,> 100 µM (inactive)
